The source made the active and inactive calls.
Experiments:
Genome polyprotein = Genome polyprotein (dengue virus type 2, UniProt P29990); assay: Dengue-2 NS5 methyltransferase inhibitors, primary screen, biochemical, confirmation dose response (AID 588689); assay type: functional
[1] = target: DNA dC->dU-editing enzyme APOBEC-3A (Homo sapiens, UniProt P31941); assay: Dose Response confirmation of small molecule APOBEC3A DNA Deaminase Inhibitors via a fluorescence-based single-stranded DNA deaminase assay. [Related pubchem assays (depositor defined):AID493011, AID493024]; assay type: functional
[2] = target: DNA dC->dU-editing enzyme APOBEC-3G (Homo sapiens, UniProt Q9HC16); assay type: functional;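 further: Dose-response counterscreen measuring inhibition of APOBEC3G DNA deaminase activity, run while confirming APOBEC3A inhibitors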
[3] = target: T1, Short transient receptor potential channel 4 (Mus musculus, UniProt Q9QUQ5); assay: mouse TRPC4 channel inhibitors, dose response, cell-based, HEK293 TRPC4/mu-opioid, Fluo-4 calcium (AID 434942); assay type: functional;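 further: potency of inhibitors blocking the TRPC4 calcium response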
T1 sequence (Q9QUQ5 whole entry): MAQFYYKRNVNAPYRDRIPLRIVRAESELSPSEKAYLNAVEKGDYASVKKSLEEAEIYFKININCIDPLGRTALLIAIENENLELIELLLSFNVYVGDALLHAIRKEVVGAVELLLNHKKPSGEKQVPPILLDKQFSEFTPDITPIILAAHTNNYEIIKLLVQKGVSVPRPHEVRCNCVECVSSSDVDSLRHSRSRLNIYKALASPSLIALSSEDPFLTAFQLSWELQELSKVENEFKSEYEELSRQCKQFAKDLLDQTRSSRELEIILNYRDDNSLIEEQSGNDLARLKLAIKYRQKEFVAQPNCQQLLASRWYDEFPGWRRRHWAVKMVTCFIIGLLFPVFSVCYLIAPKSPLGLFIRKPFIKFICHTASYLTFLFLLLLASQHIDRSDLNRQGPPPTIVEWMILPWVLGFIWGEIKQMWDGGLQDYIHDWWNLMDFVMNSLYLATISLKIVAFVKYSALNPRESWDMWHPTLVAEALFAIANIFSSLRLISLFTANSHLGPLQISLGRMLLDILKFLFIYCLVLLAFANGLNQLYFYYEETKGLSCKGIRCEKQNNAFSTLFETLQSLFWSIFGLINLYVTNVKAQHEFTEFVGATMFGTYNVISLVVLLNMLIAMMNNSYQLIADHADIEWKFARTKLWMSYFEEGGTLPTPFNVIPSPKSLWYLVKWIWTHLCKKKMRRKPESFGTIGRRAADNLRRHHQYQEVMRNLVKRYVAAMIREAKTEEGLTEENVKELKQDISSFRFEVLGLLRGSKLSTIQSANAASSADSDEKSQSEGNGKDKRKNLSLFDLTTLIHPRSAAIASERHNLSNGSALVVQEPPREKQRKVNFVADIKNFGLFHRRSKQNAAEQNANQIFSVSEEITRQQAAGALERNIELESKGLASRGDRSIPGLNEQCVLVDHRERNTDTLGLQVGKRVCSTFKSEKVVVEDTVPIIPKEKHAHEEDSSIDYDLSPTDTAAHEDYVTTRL

[4] = target: T2, Heat shock factor protein 1 (Mus musculus, UniProt P38532); assay: inhibition of MG132-induced HSE-luciferase signal, confirmation, cell-based, NIH3T3, luminescence, dose retest (AID 2382); assay type: functional;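 further: NIH3T3 fibroblasts with HSF1-driven luciferase reporter stressed by proteasome inhibitor MG132; luminescence from HSF1-driven luciferase expression after 8 hours of MG132 stress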
T2 sequence (P38532 whole entry): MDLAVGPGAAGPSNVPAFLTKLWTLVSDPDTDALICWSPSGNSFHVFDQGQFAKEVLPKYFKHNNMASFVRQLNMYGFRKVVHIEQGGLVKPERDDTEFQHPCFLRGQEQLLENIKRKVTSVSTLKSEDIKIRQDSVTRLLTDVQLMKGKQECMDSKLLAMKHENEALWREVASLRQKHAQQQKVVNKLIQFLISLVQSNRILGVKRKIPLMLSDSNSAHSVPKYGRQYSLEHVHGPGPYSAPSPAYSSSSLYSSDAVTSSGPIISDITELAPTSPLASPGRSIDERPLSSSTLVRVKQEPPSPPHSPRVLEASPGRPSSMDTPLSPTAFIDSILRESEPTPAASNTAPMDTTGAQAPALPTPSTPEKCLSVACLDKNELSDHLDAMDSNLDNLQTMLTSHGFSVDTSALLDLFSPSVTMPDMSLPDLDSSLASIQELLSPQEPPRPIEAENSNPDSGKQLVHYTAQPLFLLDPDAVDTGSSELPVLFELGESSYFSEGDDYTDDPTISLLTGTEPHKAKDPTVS

Estrogen receptor = target: T3, Estrogen receptor (Homo sapiens, UniProt P03372);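 further: potency for inhibiting coactivator peptide recruitment to the receptor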
T3 sequence (P03372 whole entry): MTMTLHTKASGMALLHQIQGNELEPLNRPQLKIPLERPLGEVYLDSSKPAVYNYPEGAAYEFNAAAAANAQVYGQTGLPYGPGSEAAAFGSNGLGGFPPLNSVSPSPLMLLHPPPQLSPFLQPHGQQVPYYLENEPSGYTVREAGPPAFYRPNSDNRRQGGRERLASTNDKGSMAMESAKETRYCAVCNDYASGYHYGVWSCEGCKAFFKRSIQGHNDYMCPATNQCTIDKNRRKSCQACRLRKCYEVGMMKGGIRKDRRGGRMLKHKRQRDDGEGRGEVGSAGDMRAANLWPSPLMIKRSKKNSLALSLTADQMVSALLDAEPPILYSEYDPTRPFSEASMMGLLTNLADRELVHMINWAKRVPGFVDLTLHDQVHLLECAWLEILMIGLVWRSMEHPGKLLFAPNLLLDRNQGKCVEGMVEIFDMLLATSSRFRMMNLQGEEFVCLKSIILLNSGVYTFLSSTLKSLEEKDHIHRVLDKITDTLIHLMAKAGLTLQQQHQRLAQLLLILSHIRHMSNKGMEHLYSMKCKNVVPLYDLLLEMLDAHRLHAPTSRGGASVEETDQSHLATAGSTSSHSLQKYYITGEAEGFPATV

[5] = target: Peroxisome proliferator-activated receptor gamma/Nuclear receptor coactivator 2 (Homo sapiens, UniProt P37231); assay type: functional;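 further: agonist potency for raising coactivator recruitment to the receptor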
[6] = target: Peroxisome proliferator-activated receptor gamma/Nuclear receptor coactivator 1 (Homo sapiens, UniProt P37231); assay type: functional;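 further: agonist potency as compounds enhance coactivator SRC-1 recruitment to PPARgamma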
[7] = target: Peroxisome proliferator-activated receptor gamma/Nuclear receptor coactivator 3 (Homo sapiens, UniProt P37231); assay type: functional;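 further: agonist potency for raising coactivator recruitment to the receptor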
SUMO-activating enzyme = SUMO-activating enzyme (Homo sapiens, UniProt Q9UBT2); assay: SUMOylation inhibitor hit validation, confirmation, SUMOylation inhibitor project, biochemical, AlphaScreen (AID 2018); assay type: functional
[8] = target: T4, Rac GTPase-activating protein 1 (Homo sapiens, UniProt Q9H0H5); assay: MgcRacGAP GTPase-activating activity inhibitors, confirmation, biochemical, ADP Hunter fluorescence, primary and confirmatory (AID 624330); assay type: functional
T4 sequence (Q9H0H5 whole entry): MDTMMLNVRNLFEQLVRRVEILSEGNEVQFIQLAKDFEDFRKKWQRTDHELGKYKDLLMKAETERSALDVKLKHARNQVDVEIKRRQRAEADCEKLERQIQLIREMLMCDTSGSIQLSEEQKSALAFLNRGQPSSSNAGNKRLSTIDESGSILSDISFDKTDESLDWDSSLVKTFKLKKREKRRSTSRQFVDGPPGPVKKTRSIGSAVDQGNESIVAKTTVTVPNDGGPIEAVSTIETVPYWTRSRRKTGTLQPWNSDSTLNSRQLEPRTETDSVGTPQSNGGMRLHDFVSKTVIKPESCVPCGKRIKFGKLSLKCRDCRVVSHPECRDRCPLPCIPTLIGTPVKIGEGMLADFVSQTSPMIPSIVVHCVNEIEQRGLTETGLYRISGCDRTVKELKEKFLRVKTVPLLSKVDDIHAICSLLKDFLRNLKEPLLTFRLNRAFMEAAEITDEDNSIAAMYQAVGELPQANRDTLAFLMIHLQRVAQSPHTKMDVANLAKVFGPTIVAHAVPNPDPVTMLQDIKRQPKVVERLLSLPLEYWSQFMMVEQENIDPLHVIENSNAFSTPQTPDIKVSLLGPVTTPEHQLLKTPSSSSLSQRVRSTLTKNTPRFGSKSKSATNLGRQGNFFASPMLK

Cytochrome P450 2C9 = Cytochrome P450 2C9 (Homo sapiens, UniProt P11712)
[9] = target: Luciferin 4-monooxygenase (Photinus pyralis, UniProt P08659); assay: firefly luciferase enzyme inhibitors, dose response, biochemical, luminescence (AID 1891)
[10] = Luminescence Cell-Based Dose Confirmation HTS to Identify Inhibitors of Platelet Dense Granule Release. [Related pubchem assays: 1663 (Primary HTS), 1678 (Summary of Project)]; assay type: functional
HEK293 = assay: inhibitors of LMP1-driven NF-kB reporter, dose response, cell-based, HEK293, luciferase, cherry-pick (AID 588343); assay type: functional; details: Homo sapiens
[11] = target: Heat shock protein HSP 90-alpha (Homo sapiens, UniProt P07900); assay type: functional, organism-based
[12] = target: T5, Long-chain-fatty-acid--AMP ligase FadD28 (Mycobacterium tuberculosis, UniProt P9WQ59); assay: Fluorescence polarization aasay to screen for inhibitors that compete for the binding of FadD28 to a bisubstrate Measured in Biochemical System Using Plate Reader - 2147-01_Inhibitor_Dose_CherryPick_Activity.; assay type: functional, Mycobacterium tuberculosis H37Rv
T5 sequence (P9WQ59 whole entry): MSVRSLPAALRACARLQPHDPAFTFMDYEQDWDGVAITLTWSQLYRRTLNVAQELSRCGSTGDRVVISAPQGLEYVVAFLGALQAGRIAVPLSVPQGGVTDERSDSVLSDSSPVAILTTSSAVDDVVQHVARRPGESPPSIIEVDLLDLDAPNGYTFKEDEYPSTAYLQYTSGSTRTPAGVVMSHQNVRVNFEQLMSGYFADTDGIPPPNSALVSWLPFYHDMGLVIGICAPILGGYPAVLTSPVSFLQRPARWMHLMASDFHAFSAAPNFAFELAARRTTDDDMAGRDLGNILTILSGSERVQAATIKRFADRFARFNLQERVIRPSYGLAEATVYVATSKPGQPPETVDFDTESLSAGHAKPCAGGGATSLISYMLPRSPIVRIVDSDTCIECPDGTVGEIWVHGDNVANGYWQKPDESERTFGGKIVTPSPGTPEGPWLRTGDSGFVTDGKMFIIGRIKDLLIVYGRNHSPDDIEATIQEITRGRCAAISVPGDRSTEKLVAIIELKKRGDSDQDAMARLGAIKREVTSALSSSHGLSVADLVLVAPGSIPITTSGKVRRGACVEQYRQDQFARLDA

Chain of DNA dC->dU-editing enzyme APOBEC-3G (Q9HC16 whole entry): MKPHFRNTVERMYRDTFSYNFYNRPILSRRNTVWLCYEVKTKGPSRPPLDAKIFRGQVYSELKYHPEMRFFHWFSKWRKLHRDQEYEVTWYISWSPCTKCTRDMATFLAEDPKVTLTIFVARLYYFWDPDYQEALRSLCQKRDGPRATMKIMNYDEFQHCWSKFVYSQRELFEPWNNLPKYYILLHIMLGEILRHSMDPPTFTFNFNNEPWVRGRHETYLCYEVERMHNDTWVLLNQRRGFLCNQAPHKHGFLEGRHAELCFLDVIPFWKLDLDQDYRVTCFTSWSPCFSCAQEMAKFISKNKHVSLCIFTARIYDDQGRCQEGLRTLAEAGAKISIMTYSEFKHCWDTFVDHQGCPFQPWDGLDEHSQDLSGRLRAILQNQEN
Chain of Genome polyprotein (P29990 2492-3391 limits assumed): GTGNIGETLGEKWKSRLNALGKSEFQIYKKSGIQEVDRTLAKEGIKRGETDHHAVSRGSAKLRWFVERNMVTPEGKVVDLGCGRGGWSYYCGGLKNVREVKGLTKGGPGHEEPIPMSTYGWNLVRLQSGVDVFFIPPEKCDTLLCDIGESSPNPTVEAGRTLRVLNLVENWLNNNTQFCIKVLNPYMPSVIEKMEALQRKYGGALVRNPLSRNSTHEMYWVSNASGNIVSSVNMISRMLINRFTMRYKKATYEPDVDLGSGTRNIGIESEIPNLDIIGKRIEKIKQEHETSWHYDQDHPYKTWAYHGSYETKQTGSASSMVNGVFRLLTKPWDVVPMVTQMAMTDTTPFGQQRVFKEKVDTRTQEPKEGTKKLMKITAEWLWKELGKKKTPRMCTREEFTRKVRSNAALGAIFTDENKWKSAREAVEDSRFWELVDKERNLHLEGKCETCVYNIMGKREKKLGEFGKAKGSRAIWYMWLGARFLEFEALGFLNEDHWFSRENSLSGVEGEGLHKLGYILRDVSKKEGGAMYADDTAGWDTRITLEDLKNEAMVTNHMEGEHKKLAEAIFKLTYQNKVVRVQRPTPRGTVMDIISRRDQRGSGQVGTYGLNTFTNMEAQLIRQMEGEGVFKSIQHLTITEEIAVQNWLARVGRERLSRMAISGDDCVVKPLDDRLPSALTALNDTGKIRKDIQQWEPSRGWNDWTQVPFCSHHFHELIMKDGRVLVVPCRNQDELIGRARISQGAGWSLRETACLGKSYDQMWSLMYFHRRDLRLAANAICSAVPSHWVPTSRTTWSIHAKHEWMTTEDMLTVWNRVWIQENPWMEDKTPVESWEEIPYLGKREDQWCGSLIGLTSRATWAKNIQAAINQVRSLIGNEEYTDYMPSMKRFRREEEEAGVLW
Chain of DNA dC->dU-editing enzyme APOBEC-3A (P31941 whole entry): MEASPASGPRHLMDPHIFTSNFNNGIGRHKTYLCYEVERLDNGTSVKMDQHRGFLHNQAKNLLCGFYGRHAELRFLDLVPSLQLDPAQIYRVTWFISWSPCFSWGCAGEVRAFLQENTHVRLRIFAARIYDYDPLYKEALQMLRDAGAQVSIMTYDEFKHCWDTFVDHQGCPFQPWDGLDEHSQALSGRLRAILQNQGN
Chain of Peroxisome proliferator-activated receptor gamma/Nuclear receptor coactivator 2 (P37231 whole entry): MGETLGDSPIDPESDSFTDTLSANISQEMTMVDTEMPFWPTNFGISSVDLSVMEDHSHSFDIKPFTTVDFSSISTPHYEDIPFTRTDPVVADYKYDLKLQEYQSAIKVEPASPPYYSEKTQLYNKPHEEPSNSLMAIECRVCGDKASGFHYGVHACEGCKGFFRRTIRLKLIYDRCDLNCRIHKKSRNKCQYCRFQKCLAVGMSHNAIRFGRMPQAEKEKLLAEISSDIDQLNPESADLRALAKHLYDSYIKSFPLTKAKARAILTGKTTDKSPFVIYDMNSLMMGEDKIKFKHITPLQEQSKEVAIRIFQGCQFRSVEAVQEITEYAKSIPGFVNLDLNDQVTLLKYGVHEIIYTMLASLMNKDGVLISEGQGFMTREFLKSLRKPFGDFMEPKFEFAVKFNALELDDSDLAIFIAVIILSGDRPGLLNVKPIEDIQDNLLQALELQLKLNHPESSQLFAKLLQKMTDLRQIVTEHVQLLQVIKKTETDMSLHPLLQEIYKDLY
Chain of Peroxisome proliferator-activated receptor gamma/Nuclear receptor coactivator 2 (Q15596 whole entry, further chain): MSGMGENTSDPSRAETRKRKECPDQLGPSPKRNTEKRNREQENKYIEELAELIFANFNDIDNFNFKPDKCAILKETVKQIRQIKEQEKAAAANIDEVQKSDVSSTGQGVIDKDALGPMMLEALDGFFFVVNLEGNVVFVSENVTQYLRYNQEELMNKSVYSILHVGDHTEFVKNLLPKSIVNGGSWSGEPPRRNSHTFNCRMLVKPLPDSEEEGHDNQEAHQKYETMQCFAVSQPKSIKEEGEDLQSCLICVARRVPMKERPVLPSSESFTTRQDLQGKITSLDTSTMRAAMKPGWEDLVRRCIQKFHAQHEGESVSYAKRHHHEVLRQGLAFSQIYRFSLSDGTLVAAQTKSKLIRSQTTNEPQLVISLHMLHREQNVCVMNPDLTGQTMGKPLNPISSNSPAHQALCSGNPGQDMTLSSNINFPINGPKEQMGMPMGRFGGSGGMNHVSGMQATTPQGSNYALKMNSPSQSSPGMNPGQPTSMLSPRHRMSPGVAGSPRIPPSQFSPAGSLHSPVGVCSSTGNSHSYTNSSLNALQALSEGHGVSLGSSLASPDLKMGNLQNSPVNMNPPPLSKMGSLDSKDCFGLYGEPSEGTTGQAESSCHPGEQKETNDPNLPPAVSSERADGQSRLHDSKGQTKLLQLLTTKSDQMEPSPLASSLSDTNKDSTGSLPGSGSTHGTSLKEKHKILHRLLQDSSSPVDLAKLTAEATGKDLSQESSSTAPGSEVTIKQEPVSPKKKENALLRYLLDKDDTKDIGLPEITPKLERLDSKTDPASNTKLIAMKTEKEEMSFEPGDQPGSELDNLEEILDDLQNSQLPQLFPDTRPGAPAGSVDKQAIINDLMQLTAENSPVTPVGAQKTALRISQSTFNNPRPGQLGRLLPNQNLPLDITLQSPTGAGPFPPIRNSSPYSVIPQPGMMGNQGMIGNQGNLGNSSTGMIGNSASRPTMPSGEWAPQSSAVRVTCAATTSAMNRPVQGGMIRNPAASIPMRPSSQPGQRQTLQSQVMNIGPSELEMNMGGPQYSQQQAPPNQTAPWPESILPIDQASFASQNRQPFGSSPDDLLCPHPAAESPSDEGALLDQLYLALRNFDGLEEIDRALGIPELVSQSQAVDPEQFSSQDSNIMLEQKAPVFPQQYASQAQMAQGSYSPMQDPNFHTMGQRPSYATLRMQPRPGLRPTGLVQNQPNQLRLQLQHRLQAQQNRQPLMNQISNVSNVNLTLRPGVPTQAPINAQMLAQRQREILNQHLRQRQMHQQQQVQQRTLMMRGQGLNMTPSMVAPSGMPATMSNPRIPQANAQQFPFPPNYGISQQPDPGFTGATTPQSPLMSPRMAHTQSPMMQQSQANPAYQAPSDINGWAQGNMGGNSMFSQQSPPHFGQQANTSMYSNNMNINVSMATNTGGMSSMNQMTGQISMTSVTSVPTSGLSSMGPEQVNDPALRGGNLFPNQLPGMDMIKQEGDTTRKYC
Chain of SUMO-activating enzyme (Q9UBE0 whole entry): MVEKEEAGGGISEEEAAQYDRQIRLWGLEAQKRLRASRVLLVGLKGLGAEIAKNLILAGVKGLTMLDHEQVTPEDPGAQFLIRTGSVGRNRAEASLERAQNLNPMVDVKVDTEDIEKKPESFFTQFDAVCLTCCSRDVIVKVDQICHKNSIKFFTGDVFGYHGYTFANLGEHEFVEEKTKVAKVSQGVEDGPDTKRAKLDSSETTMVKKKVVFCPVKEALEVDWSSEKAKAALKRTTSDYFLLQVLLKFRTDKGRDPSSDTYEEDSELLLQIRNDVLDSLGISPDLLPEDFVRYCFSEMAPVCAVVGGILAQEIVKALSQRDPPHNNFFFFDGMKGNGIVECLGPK
Chain of SUMO-activating enzyme (Q9UBT2 whole entry): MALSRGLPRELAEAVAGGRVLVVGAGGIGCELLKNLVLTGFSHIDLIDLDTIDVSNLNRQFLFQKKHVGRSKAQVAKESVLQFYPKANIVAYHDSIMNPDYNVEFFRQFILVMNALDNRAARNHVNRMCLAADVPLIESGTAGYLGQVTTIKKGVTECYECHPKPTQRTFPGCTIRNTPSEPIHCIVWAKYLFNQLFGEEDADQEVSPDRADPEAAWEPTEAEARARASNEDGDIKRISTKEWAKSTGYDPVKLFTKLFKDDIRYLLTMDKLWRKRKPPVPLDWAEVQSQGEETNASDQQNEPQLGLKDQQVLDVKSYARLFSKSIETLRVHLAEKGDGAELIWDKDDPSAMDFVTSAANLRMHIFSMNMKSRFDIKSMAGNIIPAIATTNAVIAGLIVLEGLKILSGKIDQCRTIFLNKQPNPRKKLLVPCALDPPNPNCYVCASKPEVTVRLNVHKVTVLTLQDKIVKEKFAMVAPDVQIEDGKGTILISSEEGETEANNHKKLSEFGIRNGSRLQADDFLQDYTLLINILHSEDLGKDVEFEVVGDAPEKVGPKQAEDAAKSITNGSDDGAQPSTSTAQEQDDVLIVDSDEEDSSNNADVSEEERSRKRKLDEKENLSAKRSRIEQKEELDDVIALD
Chain of Luciferin 4-monooxygenase (P08659 whole entry): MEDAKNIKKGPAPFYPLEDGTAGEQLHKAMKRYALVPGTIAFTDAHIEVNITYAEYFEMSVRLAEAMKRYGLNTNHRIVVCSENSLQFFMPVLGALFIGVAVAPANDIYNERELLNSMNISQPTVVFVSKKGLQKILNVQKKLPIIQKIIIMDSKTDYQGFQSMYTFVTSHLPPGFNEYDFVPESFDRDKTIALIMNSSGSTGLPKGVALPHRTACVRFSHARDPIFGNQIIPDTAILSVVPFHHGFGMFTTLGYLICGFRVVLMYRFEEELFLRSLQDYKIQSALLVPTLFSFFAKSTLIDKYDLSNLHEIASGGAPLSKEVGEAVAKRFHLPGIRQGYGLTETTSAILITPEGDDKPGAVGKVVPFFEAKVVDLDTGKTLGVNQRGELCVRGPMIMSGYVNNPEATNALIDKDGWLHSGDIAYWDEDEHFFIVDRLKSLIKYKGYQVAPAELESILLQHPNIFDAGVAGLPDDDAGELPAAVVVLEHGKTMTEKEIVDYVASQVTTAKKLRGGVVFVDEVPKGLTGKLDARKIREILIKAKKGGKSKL

With `CSc1ccc(C(c2c(C(=O)O)[nH]c3ccccc23)c2c(C(=O)O)[nH]c3ccccc23)cc1` the IC50 (Genome polyprotein) was 48.8 µM (active).

For `CCN1C(=NCC2CC2)N[C@@H](c2ccccc2)C(C(=O)OC)=C1C`, the IC50 [1] was 3.37 µM (active) and the IC50 [2] was 8.56 µM (active).

With `COC(=O)c1ccc2ccn(CC(=O)NC(C)C)c2c1` the IC50 [1] was 3.92 µM (active) and the IC50 [2] was 4.95 µM (active).

For `CSc1nsc(NC(=O)Cc2ccccc2)n1`, the EC50 [3] was 5.31 µM (active).

With `O=C(O)C1=CC[C@@H](c2ccc(Cl)cc2)N(S(=O)(=O)c2ccc(Cl)cc2)[C@H]1c1cccc(Cl)c1` the IC50 (Genome polyprotein) was 37.4 µM (active).

With `COC(=O)c1c(NC(=O)CSc2nc[nH]n2)sc(C)c1C` the EC50 [3] was 4.73 µM (active).

With `CCn1c2ccccc2c2cc(NC(=O)c3ccccc3-c3ccccc3C(=O)O)ccc21` the IC50 (Genome polyprotein) was 42.9 µM (active).

With `N#Cc1c(NC(=O)CSc2ncccn2)oc(-c2ccccc2)c1-c1ccccc1` the EC50 [4] was 9.25 µM (active) and the IC50 (Estrogen receptor) was 9.58 µM (active).

For `N#Cc1c(N)nc(SCC(=O)NC2CCCCC2)c(C#N)c1-c1ccc(Cl)cc1`, the EC50 [5] was 21.9 µM (not active), the EC50 [6] was 34.6 µM (not active) and the EC50 [7] was 37.1 µM (not active).

In the case of `O=C(COC(=O)c1cc(NS(=O)(=O)c2cccs2)ccc1O)Nc1cc(Cl)ccc1Cl`, the IC50 (SUMO-activating enzyme) is reported as 28.8 µM (active).

In the case of `O=C(O)CCn1cc(C=C2C(=O)NC(=O)NC2=O)c(-c2ccc(Br)cc2)n1`, the IC50 (Genome polyprotein) is reported as 7.97 µM (active) and the IC50 [8] is reported as 95.3 µM (active).

With `Cc1nn(-c2ccc(Cl)cc2)c2sc(C(=O)c3c(N)n(C)c(=O)n(C)c3=O)cc12` the EC50 [5] was 18 µM (not active), the EC50 [6] was 18.4 µM (not active) and the EC50 [7] was 33.3 µM (not active). The AC50 (Cytochrome P450 2C9) was 25.1 µM (inconclusive).

With `Cc1ccc([C@H]2C(C(=O)O)=CC[C@@H](c3ccc(Cl)c(Cl)c3)N2S(=O)(=O)c2ccc(C)cc2)cc1` the IC50 (Genome polyprotein) was 38.8 µM (active).

For `Cc1ccc(CNC(=O)COc2ccc(C(=O)c3ccc(F)cc3)cc2)cc1`, the EC50 [5] was > 79.4 µM (not active), the EC50 [6] was > 79.4 µM (not active) and the EC50 [7] was > 79.4 µM (not active).

For `COc1ccccc1C(=O)Nc1nc(-c2cccs2)c(NC(C)=O)s1`, the IC50 (Estrogen receptor) was 19 µM (active).

For `Cc1ccc(C2CN(C)CC2C(=O)c2ccc(F)cc2)cc1` (configuration not stated), the EC50 [3] was 13.3 µM (active).

With `COc1ccc(-c2c(C#N)c(C)nc3c2C(=O)c2ccccc2-3)cc1` the EC50 [5] was 32.6 µM (not active), the EC50 [6] was 55.3 µM (not active) and the EC50 [7] was 48.3 µM (not active).

For `COCc1cc(C)nc(Sc2nc3c(c(=O)n(C)c(=O)n3C)n2C)c1C#N`, the IC50 [1] was 7.99 µM (active) and the IC50 [2] was 8.47 µM (active).

With `COC(=O)C1=C(C)N(CC2CC2)C(NCc2cc(OC)c(OC)c(OC)c2)=N[C@H]1c1ccccc1` the IC50 [1] was 8.83 µM (active) and the IC50 [2] was 14 µM (active).

In the case of `COc1ccc(NC(=O)c2ccccn2)cc1`, the EC50 [9] is reported as 9.53 µM (active), the EC50 [10] is reported as 10.5 µM (active) and the AC50 (HEK293) is reported as 3.65 µM (active).

For `O=C(O)c1ccc(N/N=C/c2ccc(-c3ccccc3)cc2)cc1`, the AC50 [11] was 3.09 µM (active) and the AC50 [12] was 10.9 µM (active).

For `NC(=O)C[N+]1(CC#CC(O)(c2ccccc2)c2ccccc2)CCCC1`, the IC50 [1] was 2.74 µM (active) and the IC50 [2] was 2.59 µM (active).

With `CCCCCCC(=O)N(O)C1CC(=O)N(c2ccc(F)cc2)C1=O` (configuration not stated) the AC50 [11] was 2.58 µM (active).
